{"source": "paper PMC4145316", "about": "“Cytotoxic and Apoptosis-Inducing Activity of Triterpene Glycosides from Holothuria scabra and Cucumaria frondosa against HepG2 Cells” (Marine Drugs, 2014)", "key": {"[1]": {"test_system": "human liver (HL-7702) cells", "experiment": "MTT cytotoxicity assay, normal HL-7702 cells", "type": "cell-based", "conditions": "for Ratio (HL-7702/HepG2): ratio of IC50 values against HL-7702 and HepG2 cells, selective cytotoxicity", "experimental": "(§1) Human hepatoma (HepG2), human cervical cancer (HeLa), human leukemia (K562) and human liver (HL-7702) cells were obtained by Shanghai Institute of Biochemistry and Cell Biology, and maintained in the logarithmic phase of growth in RPMI-1640 complete medium supplemented with 2 mM L-glutamine (Sigma Chemical Co., Saint Louis, MO, USA), 100 IU/mL penicillin, 100 μg/mL streptomycin and 10% FCS at 37 °C under humidified air with 5% CO2.\n(§2) The effect of compounds 1–13 on the viability of HepG2, HeLa, K562 and HL-7702 cells was determined by MIT assay as described previously. Briefly, the tumor and normal cells were seeded at 1 × 10^4 cells/well in a 96-well microtiter plate and incubated at 37 °C in a humidified atmosphere with 5% CO2. After 24 h, compounds 1–13, the positive drug CDDP or RPMI-1640 medium were added into each well, and the plates were incubated at 37 °C for the indicated time. Each concentration was repeated four wells. 50 μL of MTT solution (2 mg/mL) was added to each well 4 h before incubation end, and incubated further for 4 h. The plates were centrifuged (1400× g, 5 min) and the untransformed MTT was removed carefully by pipetting. To each well, 150 μL of DMSO was added and the absorbance was evaluated in an ELISA reader at 570 nm after 15 min. The inhibitory rates and 50% inhibitory concentrations (IC50) values towards cell viability were calculated by NDST software. Each test was performed in triplicate."}, "HepG2 cells [2]": {"test_system": "HepG2 cells", "experiment": "Mitochondrial transmembrane potential, JC-1 staining", "type": "cell-based, human", "conditions": "2.5, 2.75 and 3 μg/mL for 6 h", "experimental": "Therefore, we measured the Δψm in 1-treated HepG2 cells and control cells using JC-1 staining, and the results were shown in Figure 4. The aggregated JC-1 within normal mitochondria in HepG2 cells was dispersed to the monomeric form (green fluorescence) after treatment with 1 for 6 h. […] After treatment with 1 at 3 μg/mL, the red fluorescence disappeared and pure green fluorescence only occurred in HepG2 cells.\nAfter treatment with 1 at the concentration of 0, 2.5, 2.75 and 3 μg/mL for 6 h, the cells were harvested, washed twice with PBS, and then incubated with 500 μL of JC-1 staining solution (5 μg/mL) at 37 °C for 30 min [43]. The stained cells were rinsed twice with PBS and resuspended in medium. The Δψm was monitored by determining the relative amounts of dual emissions from mitochondrial JC-1 monomers (green fluorescence) to aggregates (red fluorescence) using an Olympus fluorescent microscope under Argon-ion 488 nm laser excitation."}, "[3]": {"test_system": "human cervical cancer (HeLa) cells", "experiment": "MTT cytotoxicity assay, HeLa cells", "type": "cell-based", "conditions": "means ± SD (n = 3)", "experimental": "as §1, §2"}, "[4]": {"test_system": "human hepatoma (HepG2) cells", "experiment": "MTT cytotoxicity assay, HepG2 cells", "type": "cell-based", "conditions": "means ± SD (n = 3)", "experimental": "as §1, §2"}, "[5]": {"test_system": "human gastric cancer MKN-45 cells", "conditions": "read-out: IC50 against MKN-45 cells; cited from earlier work"}, "HepG2 cells [6]": {"test_system": "HepG2 cells", "experiment": "HepG2 cell viability, MTT, 6 h and 12 h", "type": "cell-based, human", "experimental": "To determine the effects of 1 on the viability of HepG2 cell, the cells were cultured with 1 at different concentrations for 6 h and 12 h, and cell viability was measured using MTT assay.\nFigure 2 Effect of 1 on cell viability of HepG2 cells. HepG2 cells were treated with the various concentrations of 1 for 6 and 12 h, and cell viability was measured using the MTT assay. The values are presented as means ± SD (n = 5).\nas §2"}, "[7]": {"test_system": "human leukemia (K562) cells", "experiment": "MTT cytotoxicity assay, K562 cells", "type": "cell-based", "conditions": "means ± SD (n = 3)", "experimental": "as §1, §2"}, "[8]": {"test_system": "Caspase-3, Caspase-8 and Caspase-9 mRNA in HepG2 cells", "experiment": "RT-PCR, Caspase-3, Caspase-8 and Caspase-9 mRNA expression", "type": "cell-based, human", "text": "Caspases play an important role in cell apoptosis. Activation of caspase appears to be directly responsible for many molecular and structural changes in apoptosis. The caspase-dependent process is associated with two pathways of anticancer drug-induced apoptosis, the extrinsic (death receptor) pathway and the intrinsic (mitochondrial) pathway. The extrinsic pathway is initiated by death ligands, such as FasL, leading to cleavage of pro-Caspase-8 to its active form, which subsequently activates downstream effectors such as Caspase-3. The intrinsic pathway is characterized by mitochondria dysfunction, resulting in the reduction of mitochondrial transmembrane potentials, mitochondrial translocation of the pro-apoptotic Bax protein, cytochrome c release and activation of downstream effector caspases such as Caspase-9 [39, 40]. Caspase-3 is one of the downstream effectors of the caspase family, and is considered to involve both the mitochondrial apoptotic pathway and the death receptor pathway. […]\nFigure 6 Effects of 1 on the mRNA expression level of Caspase-3, Caspase-8 and Caspase-9 in HepG2 cells. […] The mRNA expression levels of β-actin, Caspase-3, Caspase-8 and Caspase-9 were detected by RT-PCR using specific primers. […]\nTotal RNA was extracted with TRIzol reagent (Invitrogen, Grand Island, NY, USA) according to the manufacturer’s instructions, and reverse transcription was performed as previously. […] Semi-quantitative RT-PCR was performed using β-actin as an internal control to normalize gene expression for the PCR templates. The PCR products were analyzed by electrophoresis on a 1.5% agarose gel containing goldview (5 μL/100 mL), and the amplified bands were visualized and photographed using JS-680B Gel Documentation and Analysis System (Shanghai Peiqing Science and Technology Co., Ltd., Shanghai, China). The size of the amplified fragments was determined by comparison with a standard DNA marker."}, "[9]": {"conditions": "no difference among concentrations at 2 h"}}}
{"smiles": "COC1C(O)C(CO)OC(OC2C(O)C(CO)OC(OC3C(C)OC(OC4C(OC5CCC6(C)C7=CC(O)C89C(=O)OC(C)(CCCC(C)C)C8(O)CCC9(C)C7CCC6C5(C)C)OCC(OS(=O)(=O)O)C4O)C(O)C3O)C2O)C1O.[Na+]", "note": "(centres unmarked) [Echinoside A (1), Echinoside A]", "values": [{"measurement": "IC50 (μg/mL) HL-7702", "setting": "[1]; MTT assay, normal hepatocytes, means ± SD (n = 3)", "value": "3.12 ± 0.65", "unit": "µg/mL"}, {"measurement": "Ratio (HL-7702/HepG2)", "setting": "[1]", "value": 2.08}, {"measurement": "Ratio (HL-7702/HepG2)", "setting": "[1]; listed as 1", "value": "more than 2"}, {"measurement": "mitochondrial transmembrane potential (Δψm)", "setting": "HepG2 cells [2]", "value": "significantly decreased"}, {"measurement": "IC50 (μg/mL) HeLa", "setting": "[3]", "value": "1.25 ± 0.16", "unit": "µg/mL"}, {"measurement": "IC50 (μg/mL) HepG2", "setting": "[4]", "value": "1.50 ± 0.08", "unit": "µg/mL"}, {"measurement": "IC50", "setting": "[5]", "value": 1860, "unit": "nM"}, {"measurement": "cell viability of HepG2 cells at 2.25 μg/mL", "setting": "HepG2 cells [6]; 2.25 μg/mL", "value": "hardly influenced cell viability"}, {"measurement": "cell viability of HepG2 cells at 3 μg/mL", "setting": "HepG2 cells [6]; 3 μg/mL", "value": "completely inhibited"}, {"measurement": "effective concentration range for inhibiting survival of HepG2 cells", "setting": "HepG2 cells [6]; MTT", "value": "2.25−3 μg/mL"}, {"measurement": "IC50 (μg/mL) K562", "setting": "[7]", "value": "1.61 ± 0.11", "unit": "µg/mL"}, {"measurement": "expression level of Caspase-8 mRNA", "setting": "[8]; [9]", "value": "significantly up-regulated"}, {"measurement": "expression level of Caspase-9 mRNA", "setting": "[8]; [9]", "value": "significantly up-regulated"}, {"measurement": "expression level of Caspase-3 mRNA", "setting": "[8]; time- and dose-dependent", "value": "markedly up-regulated"}]}
